The target of data set [1] is T1, reuptake of serotonine (5-HT) in synaptosomes (Rattus norvegicus, UniProt P31652).
T1 construct: in synaptosomes as described in WO 97/16451 (NeuroSearch A/S); from tissue
The experiment in a line: Inhibition of 5-HT reuptake in synaptosomes. It counts as biochemical. The following applies: 3H-5-HT, read-out: 5-HT-uptake IC50. The text has this:
(§1) Compounds of the invention may be tested for their ability to inhibit reuptake of the monoamines dopamine, noradrenaline and serotonin in synaptosomes e.g. such as described in WO 97/30997 (NeuroSearch A/S) or WO 97/16451 (NeuroSearch A/S). Based on the balanced activity observed in these tests the compound of the invention is considered useful for the treatment, prevention or alleviation of a disease or a disorder or a condition of a mammal, including a human, which disease, disorder or condition is responsive to inhibition of monoamine neurotransmitter re-uptake in the central nervous system.
(§2) Compounds were tested for their ability to inhibit the reuptake of the monoamine neurotransmitters dopamine (DA) noradrenaline (NA) and serotonine (5-HT) in synaptosomes as described in WO 97/16451 (NeuroSearch A/S).
(§3) The test values are given as IC50 (the concentration (μM) of the test substance which inhibits the specific binding of ^3H-DA, ^3H-NA, or ^3H-5-HT by 50%).

Data set [2] deals with T2, reuptake of dopamine (DA) in synaptosomes (Rattus norvegicus, UniProt P23977).
T2 construct: in synaptosomes as described in WO 97/16451 (NeuroSearch A/S); from tissue
T2 sequence (P23977 whole entry): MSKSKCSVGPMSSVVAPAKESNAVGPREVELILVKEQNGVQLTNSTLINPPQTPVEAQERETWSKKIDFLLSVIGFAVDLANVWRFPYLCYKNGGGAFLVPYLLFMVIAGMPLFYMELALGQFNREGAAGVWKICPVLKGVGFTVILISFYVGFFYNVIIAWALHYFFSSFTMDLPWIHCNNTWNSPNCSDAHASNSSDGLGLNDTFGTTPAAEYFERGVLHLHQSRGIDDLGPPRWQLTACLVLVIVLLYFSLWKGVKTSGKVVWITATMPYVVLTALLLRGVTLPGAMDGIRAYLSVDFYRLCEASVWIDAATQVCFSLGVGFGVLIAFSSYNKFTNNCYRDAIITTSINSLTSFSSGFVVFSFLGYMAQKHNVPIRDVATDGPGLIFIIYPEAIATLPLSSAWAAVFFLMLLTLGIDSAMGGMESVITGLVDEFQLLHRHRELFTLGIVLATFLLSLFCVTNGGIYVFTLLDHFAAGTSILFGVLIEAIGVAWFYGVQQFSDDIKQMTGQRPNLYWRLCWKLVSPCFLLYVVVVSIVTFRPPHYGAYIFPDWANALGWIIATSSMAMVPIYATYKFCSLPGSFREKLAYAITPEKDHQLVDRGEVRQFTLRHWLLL
The data set can be described thus: Inhibition of dopamine reuptake in synaptosomes. It counts as biochemical. The following applies: 3H-DA, read-out: DA-uptake IC50.
Source text: as §1, §2, §3

Data set [3] deals with T3, reuptake of noradrenaline (NA) in synaptosomes (Rattus norvegicus, UniProt Q63380).
T3 construct: in synaptosomes as described in WO 97/16451 (NeuroSearch A/S); from tissue
T3 sequence (Q63380 1-617): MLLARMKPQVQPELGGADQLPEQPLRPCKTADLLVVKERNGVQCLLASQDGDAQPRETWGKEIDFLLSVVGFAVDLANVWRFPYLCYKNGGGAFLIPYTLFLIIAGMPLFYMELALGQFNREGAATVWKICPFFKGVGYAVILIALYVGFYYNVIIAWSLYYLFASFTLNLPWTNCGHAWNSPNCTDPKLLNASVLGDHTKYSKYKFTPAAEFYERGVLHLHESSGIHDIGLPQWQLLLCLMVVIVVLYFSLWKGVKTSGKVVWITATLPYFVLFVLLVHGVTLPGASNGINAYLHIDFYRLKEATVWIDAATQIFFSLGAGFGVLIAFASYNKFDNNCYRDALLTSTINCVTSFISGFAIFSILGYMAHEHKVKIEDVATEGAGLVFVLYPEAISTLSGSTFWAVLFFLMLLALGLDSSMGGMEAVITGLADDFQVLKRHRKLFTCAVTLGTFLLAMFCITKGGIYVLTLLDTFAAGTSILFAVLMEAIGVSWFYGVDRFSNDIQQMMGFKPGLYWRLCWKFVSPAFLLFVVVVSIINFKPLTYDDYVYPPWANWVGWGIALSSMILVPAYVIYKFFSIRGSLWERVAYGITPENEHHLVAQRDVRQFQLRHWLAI
The experiment in a line: Inhibition of noradrenaline reuptake in synaptosomes. It counts as biochemical. Particulars: 3H-NA, read-out: NA-uptake IC50.
Source text: as §1, §2, §3

In patent US20120220604A1, “PIPERAZINYL-ALKYL-BENZOIMIDAZOL-2-ONE DERIVATIVES AND THEIR USE AS MONOAMINE NEUROTRANSMITTER RE-UPTAKE INHIBITORS” (NeuroSearch A/S, priority 2009, published 2012) one finds melting point and IC50 data, which are given here for ten compounds.

The structures appear in SMILES notation. Counter-ions that a name gives are not always drawn. A value given as a limit tells only on which side of the number the result lay.

By melting point is commonly meant the temperature, or range, at which the solid turns liquid. One may read the IC50 as the point on the concentration scale where inhibition reaches its midpoint.

T1 sequence (P31652 whole entry): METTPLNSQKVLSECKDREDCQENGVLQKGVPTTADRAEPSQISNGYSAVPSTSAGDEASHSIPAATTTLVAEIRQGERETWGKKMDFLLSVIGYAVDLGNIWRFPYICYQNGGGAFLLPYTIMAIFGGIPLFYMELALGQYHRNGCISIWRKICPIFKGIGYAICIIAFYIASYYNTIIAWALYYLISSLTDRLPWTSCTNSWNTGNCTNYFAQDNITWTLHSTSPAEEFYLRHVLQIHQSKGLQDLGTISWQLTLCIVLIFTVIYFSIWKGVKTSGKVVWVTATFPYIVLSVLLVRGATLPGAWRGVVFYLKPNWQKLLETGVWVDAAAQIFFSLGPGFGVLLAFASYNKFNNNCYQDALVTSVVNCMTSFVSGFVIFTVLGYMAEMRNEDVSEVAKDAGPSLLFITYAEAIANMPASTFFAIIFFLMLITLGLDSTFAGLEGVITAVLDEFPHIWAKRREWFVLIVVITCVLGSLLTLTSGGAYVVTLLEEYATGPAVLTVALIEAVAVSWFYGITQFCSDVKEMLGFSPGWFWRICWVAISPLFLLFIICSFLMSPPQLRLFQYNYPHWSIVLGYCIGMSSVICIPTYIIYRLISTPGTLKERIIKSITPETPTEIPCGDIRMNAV

Compound `O=c1n(CCN2CCN(c3ccc4[nH]ccc4c3)CC2)c2ccccc2n1C1=CCCCC1` (as salt: fumaric acid salt) [Compound A7, 1-Cyclohex-1-enyl-3-{2-[4-(1H-indol-5-yl)-piperazin-1-yl]-ethyl}-1,3-dihydro-benzoimidazol-2-one] showed a melting point of 92 to 94 °C.
Regarding `C=C(C)n1c(=O)n(CCN2CCN(c3ccc4[nH]ccc4c3)CC2)c2ccccc21` (as salt: fumaric acid salt) [Compound A8, 1-{2-[4-(1H-Indol-5-yl)-piperazin-1-yl]-ethyl}-3-isopropenyl-1,3-dihydro-benzoimidazol-2-one], the melting point fell in the range of 112 to 114 °C.
As to `C=C(C)n1c(=O)n(CCN2CCN(c3ccc4c(ccn4C)c3)CC2)c2ccccc21` [Compound A1, 1-Isopropenyl-3-{2-[4-(1-methyl-1H-indol-5-yl)-piperazin-1-yl]-ethyl}-1,3-dihydro-benzoimidazol-2-one], the half-maximal inhibitory concentration (IC50) is 14 nM in data set [1], > 1000 nM in data set [2] and 610 nM in data set [3].
For `Cn1ccc2cc(N3CCN(CCn4c(=O)n(C5=CCCCC5)c5ccccc54)CC3)ccc21` [Compound A2, 1-Cyclohex-1-enyl-3-{2-[4-(1-methyl-1H-indol-5-yl)-piperazin-1-yl]-ethyl}-1,3-dihydro-benzoimidazol-2-one], the results for the IC50 in data set [1], in data set [2] and in data set [3] were 8.1 nM, 1100 nM and 3000 nM, respectively.
The corresponding values for `Cn1ccc2ccc(N3CCN(CCn4c(=O)n(C5=CCCCC5)c5ccccc54)CC3)cc21` [Compound A3, 1-Cyclohex-1-enyl-3-{2-[4-(1-methyl-1H-indol-6-yl)-piperazin-1-yl]-ethyl}-1,3-dihydro-benzoimidazol-2-one] are 3.3 nM, 1700 nM and 1100 nM.
As for `C=C(C)n1c(=O)n(CCN2CCN(c3ccc4ccn(C)c4c3)CC2)c2ccccc21` [Compound A4, 1-Isopropenyl-3-{2-[4-(1-methyl-1H-indol-6-yl)-piperazin-1-yl]-ethyl}-1,3-dihydro-benzoimidazol-2-one], the IC50 in data set [1] came out at 4.8 nM; in data set [2], 1300 nM; in data set [3], 62 nM.
Take `C=C(C)n1c(=O)n(CCN2CCN(c3ccc4cc[nH]c4c3)CC2)c2ccccc21` [Compound A5]: the melting point fell in the range of 195 to 197 °C. Further, the IC50 in data set [1] is 3.9 nM. In addition, in data set [2], the IC50 was 1300 nM. Moreover, the IC50 in data set [3] amounted to 110 nM.
For `O=c1n(CCN2CCN(c3ccc4cc[nH]c4c3)CC2)c2ccccc2n1C1=CCCCC1` [Compound A6, 1-Cyclohex-1-enyl-3-{2-[4-(1H-indol-6-yl)-piperazin-1-yl]-ethyl}-1,3-dihydro-benzoimidazol-2-one], in that order: 171 to 173 °C, 4.4 nM, 27 nM and 160 nM.
As for `O=c1n(CCN2CCN(c3ccc4[nH]ccc4c3)CC2)c2ccccc2n1C1=CCCCC1` [Compound A7, 1-Cyclohex-1-enyl-3-{2-[4-(1H-indol-5-yl)-piperazin-1-yl]-ethyl}-1,3-dihydro-benzoimidazol-2-one], the values for the IC50 in data set [1], in data set [2] and in data set [3] were 190 nM, 2300 nM and 1200 nM, respectively.
As for `C=C(C)n1c(=O)n(CCN2CCN(c3ccc4[nH]ccc4c3)CC2)c2ccccc21` [Compound A8, 1-{2-[4-(1H-Indol-5-yl)-piperazin-1-yl]-ethyl}-3-isopropenyl-1,3-dihydro-benzoimidazol-2-one], the IC50 in data set [1] is 340 nM; in data set [2], > 1000 nM; in data set [3] it was 290 nM.
